# Experimental data: patent US20230077362A1 (CORTEVA AGRISCIENCE LLC, priority 2019, published 2023)
# Columns and labels:
# [1] = test system: Beet Armyworm (Spodoptera exigua) ("BAW"), second instar larvae; assay: Bioassay on beet armyworm (BAW), 128-well diet tray assay; type: in vivo; details: Spodoptera exigua, read-out: BAW (Biological Results, rating)
# Method in brief: (§1)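 Each value represents average percent mortality from eight wells. Larvae were kept in clear-covered trays at 25° C. for five to seven days on a 14-hour light, 10-hour dark schedule before scoring.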
# [2] = test system: Cabbage Looper (Trichoplusia ni) ("CL"), second instar larvae; assay: Bioassay on cabbage looper (CL), 128-well diet tray assay; type: in vivo; details: Trichoplusia ni, read-out: CL (Biological Results, rating)
# Method in brief: as §1
SMILES,pest or weed control at 50 µg/cm2 [1],pest or weed control at 50 µg/cm2 [2]
"CC(C)c1ccc(N(C)C)cc1N1C(=O)CS/C1=N\C(=O)Nc1ccc(-c2ncn(-c3ccc(C(F)(F)F)cn3)n2)cc1C(F)(F)F [Compound J302, (Z)-1-(3-(5-(Dimethylamino)-2-isopropylphenyl)-4-oxothiazolidin-2-ylidene)-3-(2-(trifluoromethyl)-4-(1-(5-(trifluoromethyl)pyridin-2-yl)-1H-1,2,4-triazol-3-yl)phenyl)urea]",50 to 100%,50 to 100%
"COC(C)c1ccc(C)cc1N1C(=O)CS/C1=N\C(=O)Nc1ccc(-c2ncn(-c3ccc(C(F)(F)F)cn3)n2)cc1C(F)(F)F (stereo not drawn) [Compound J303, (Z)-1-(3-(2-(1-Methoxyethyl)-5-methylphenyl)-4-oxothiazolidin-2-ylidene)-3-(2-(trifluoromethyl)-4-(1-(5-(trifluoromethyl)pyridin-2-yl)-1H-1,2,4-triazol-3-yl)phenyl)urea]",50 to 100%,50 to 100%
"Cc1ccc(COCC(F)(F)F)c(N2C(=O)CS/C2=N\C(=O)Nc2ccc(-c3ncn(-c4ccc(C(F)(F)F)cn4)n3)cc2C(F)(F)F)c1 [Compound J304, (Z)-1-(3-(5-Methyl-2-((2,2,2-trifluoroethoxy)methyl)phenyl)-4-oxothiazolidin-2-ylidene)-3-(2-(trifluoromethyl)-4-(1-(5-(trifluoromethyl)pyridin-2-yl)-1H-1,2,4-triazol-3-yl)phenyl)urea]",50 to 100%,50 to 100%
"Cc1ccc(OCCC(F)(F)F)c(N2C(=O)CS/C2=N\C(=O)Nc2ccc(-c3ncn(-c4ccc(C(F)(F)F)cn4)n3)cc2C(F)(F)F)c1 [Compound J305, (Z)-1-(3-(5-Methyl-2-(3,3,3-trifluoropropoxy)phenyl)-4-oxothiazolidin-2-ylidene)-3-(2-(trifluoromethyl)-4-(1-(5-(trifluoromethyl)pyridin-2-yl)-1H-1,2,4-triazol-3-yl)phenyl)urea]",50 to 100%,50 to 100%
"COC(C)c1ccc(C)cc1N1C(=O)CS/C1=N\C(=O)Nc1ccc(-c2ncn(-c3ccc(C(F)(F)F)cn3)n2)cc1Cl (stereo not drawn) [Compound J306, (Z)-1-(2-Chloro-4-(1-(5-(trifluoromethyl)pyridin-2-yl)-1H-1,2,4-triazol-3-yl)phenyl)-3-(3-(2-(1-methoxyethyl)-5-methylphenyl)-4-oxothiazolidin-2-ylidene)urea]",50 to 100%,50 to 100%
"Cc1ccc(OCCC(F)(F)F)c(N2C(=O)CS/C2=N\C(=O)Nc2ccc(-c3ncn(-c4ccc(C(F)(F)F)cn4)n3)cc2F)c1 [Compound J307, (Z)-1-(2-Fluoro-4-(1-(5-(trifluoromethyl)pyridin-2-yl)-1H-1,2,4-triazol-3-yl)phenyl)-3-(3-(5-methyl-2-(3,3,3-trifluoropropoxy)phenyl)-4-oxothiazolidin-2-ylidene)urea]",50 to 100%,50 to 100%
"Cc1ccc(COCC(F)(F)F)c(N2C(=O)CS/C2=N\C(=O)Nc2ccc(-c3ccn(-c4ccc(C(F)(F)F)cn4)n3)cc2F)c1 [Compound J308, (Z)-1-(2-Fluoro-4-(1-(5-(trifluoromethyl)pyridin-2-yl)-1H-pyrazol-3-yl)phenyl)-3-(3-(5-methyl-2-((2,2,2-trifluoroethoxy)methyl)phenyl)-4-oxothiazolidin-2-ylidene)urea]",50 to 100%,50 to 100%
"COC(C)c1ccc(C)cc1N1C(=O)CS/C1=N\C(=O)Nc1ccc(-c2ccn(-c3ccc(C(F)(F)F)cn3)n2)cc1F (stereo not drawn) [Compound J309, (Z)-1-(2-Fluoro-4-(1-(5-(trifluoromethyl)pyridin-2-yl)-1H-pyrazol-3-yl)phenyl)-3-(3-(2-(1-methoxyethyl)-5-methylphenyl)-4-oxothiazolidin-2-ylidene)urea]",50 to 100%,50 to 100%
"Cc1ccc(COCC(F)(F)F)c(N2C(=O)CS/C2=N\C(=O)Nc2ccc(-c3ccn(-c4ccc(C(F)(F)F)cn4)n3)cc2C)c1 [Compound J310, (Z)-1-(3-(5-Methyl-2-((2,2,2-trifluoroethoxy)methyl)phenyl)-4-oxothiazolidin-2-ylidene)-3-(2-methyl-4-(1-(5-(trifluoromethyl)pyridin-2-yl)-1H-pyrazol-3-yl)phenyl)urea]",50 to 100%,50 to 100%
"COC(C)c1ccc(C)cc1N1C(=O)CS/C1=N\C(=O)Nc1ccc(-c2ccn(-c3ccc(C(F)(F)F)cn3)n2)cc1C (stereo not drawn) [Compound J311, (Z)-1-(3-(2-(1-Methoxyethyl)-5-methylphenyl)-4-oxothiazolidin-2-ylidene)-3-(2-methyl-4-(1-(5-(trifluoromethyl)pyridin-2-yl)-1H-pyrazol-3-yl)phenyl)urea]",50 to 100%,50 to 100%
"Cc1ccc(OCCC(F)(F)F)c(N2C(=O)C(Cl)S/C2=N\C(=O)Nc2ccc(-c3ncn(-c4ccc(C(F)(F)F)cc4)n3)cc2)c1 (stereo not drawn) [Compound J317, (Z)-1-(5-Chloro-3-(5-methyl-2-(3,3,3-trifluoropropoxy)phenyl)-4-oxothiazolidin-2-ylidene)-3-(4-(1-(4-(trifluoromethyl)phenyl)-1H-1,2,4-triazol-3-yl)phenyl)urea]",50 to 100%,50 to 100%
"COc1ccc(OCCC(F)(F)F)c(N2C(=O)CS/C2=N\C(=O)Nc2ccc(-c3ncn(-c4ccc(OC(F)(F)F)cc4)n3)cc2)c1 [Compound J320, (Z)-1-(3-(5-Methoxy-2-(3,3,3-trifluoropropoxy)phenyl)-4-oxothiazolidin-2-ylidene)-3-(4-(1-(4-(trifluoromethoxy)phenyl)-1H-1,2,4-triazol-3-yl)phenyl)urea]",50 to 100%,50 to 100%
"CN(C)c1ccc(OCCC(F)(F)F)c(N2C(=O)CS/C2=N\C(=O)Nc2ccc(-c3ncn(-c4ccc(OC(F)(F)F)cc4)n3)cc2)c1 [Compound J321, (Z)-1-(3-(5-(Dimethylamino)-2-(3,3,3-trifluoropropoxy)phenyl)-4-oxothiazolidin-2-ylidene)-3-(4-(1-(4-(trifluoromethoxy)phenyl)-1H-1,2,4-triazol-3-yl)phenyl)urea]",50 to 100%,50 to 100%
"Cc1ccc(N(C)C)c(N2C(=O)CS/C2=N\C(=O)Nc2ccc(-c3ncn(-c4ccc(OC(F)(F)F)cc4)n3)cc2)c1 [Compound J322, (Z)-1-(3-(2-(dimethylamino)-5-methylphenyl)-4-oxothiazolidin-2-ylidene)-3-(4-(1-(4-(trifluoromethoxy)phenyl)-1H-1,2,4-triazol-3-yl)phenyl)urea]",50 to 100%,50 to 100%
"Cc1ccc(C(C)C)c(N2C(=O)CS/C2=N\C(=O)Nc2ccc(-c3ncn(-c4cccc(C(F)(F)F)c4)n3)cc2)c1 [Compound J323, (Z)-1-(3-(2-isopropyl-5-methylphenyl)-4-oxothiazolidin-2-ylidene)-3-(4-(1-(3-(trifluoromethyl)phenyl)-1H-1,2,4-triazol-3-yl)phenyl)urea]",50 to 100%,50 to 100%
"CC(C)c1ccc(N(C)C)cc1N1C(=O)CS/C1=N\C(=O)Nc1ccc(-c2ncn(-c3cccc(OC(F)(F)F)c3)n2)cc1 [Compound J329, (Z)-1-(3-(5-(Dimethylamino)-2-isopropylphenyl)-4-oxothiazolidin-2-ylidene)-3-(4-(1-(3-(trifluoromethoxy)phenyl)-1H-1,2,4-triazol-3-yl)phenyl)urea]",50 to 100%,50 to 100%
"Cc1ccc(COCC(F)(F)F)c(N2C(=O)CS/C2=N\C(=O)Nc2ccc(-c3ncn(-c4ccc(OC(F)(F)F)cc4)n3)cc2)c1 [Compound J331, (Z)-1-(3-(5-Methyl-2-((2,2,2-trifluoroethoxy)methyl)phenyl)-4-oxothiazolidin-2-ylidene)-3-(4-(1-(4-(trifluoromethoxy)phenyl)-1H-1,2,4-triazol-3-yl)phenyl)urea]",50 to 100%,50 to 100%
"Cc1ccc(COCC(F)(F)F)c(N2C(=O)CS/C2=N\C(=O)Nc2ccc(-c3ncn(-c4ccc(C(F)(F)F)cc4)n3)cc2)c1 [Compound J332, (Z)-1-(3-(5-Methyl-2-((2,2,2-trifluoroethoxy)methyl)phenyl)-4-oxothiazolidin-2-ylidene)-3-(4-(1-(4-(trifluoromethyl)phenyl)-1H-1,2,4-triazol-3-yl)phenyl)urea]",50 to 100%,50 to 100%
"Cc1ccc(OCCC(F)(F)F)c(N2C(=O)CS/C2=N\C(=O)Nc2ccc(-c3ncn(-c4ccc(SC(F)(F)F)cc4)n3)cc2F)c1 [Compound J333, (Z)-1-(2-Fluoro-4-(1-(4-((trifluoromethyl)thio)phenyl)-1H-1,2,4-triazol-3-yl)phenyl)-3-(3-(5-methyl-2-(3,3,3-trifluoropropoxy)phenyl)-4-oxothiazolidin-2-ylidene)urea]",50 to 100%,50 to 100%
"CC(C)c1ccc(N(C)C)cc1N1C(=O)CS/C1=N\C(=O)Nc1ccc(-c2ncn(-c3ccc(SC(F)(F)F)cc3)n2)cc1F [Compound J334, (Z)-1-(3-(5-(Dimethylamino)-2-isopropylphenyl)-4-oxothiazolidin-2-ylidene)-3-(2-fluoro-4-(1-(4-((trifluoromethyl)thio)phenyl)-1H-1,2,4-triazol-3-yl)phenyl)urea]",50 to 100%,50 to 100%
"CC(C)c1ccc(N(C)C)cc1N1C(=O)CS/C1=N\C(=O)Nc1ccc(-c2ncn(-c3ccc(C(F)(F)F)cn3)n2)cc1F [Compound J336, (Z)-1-(3-(5-(Dimethylamino)-2-isopropylphenyl)-4-oxothiazolidin-2-ylidene)-3-(2-fluoro-4-(1-(5-(trifluoromethyl)pyridin-2-yl)-1H-1,2,4-triazol-3-yl)phenyl)urea]",50 to 100%,50 to 100%
